This note sets out measurements from patent US20120202856A1, “SUBSTITUTED BENZIMDAZOLE DERIVATIVES USEFUL AS TRPM8 RECEPTOR MODULATORS” (priority 2011, published 2012).

As a reminder, the IC50 is the concentration at which inhibition is half-maximal.

“And” between values parts separate entries of the source, which are not always exact repeats. Identical values can stand only once. Counter-ions that a name gives are not always drawn. Like-named read-outs stand apart in the source and are kept apart here.

This experiment has as its target T1, canine TRPM8 (Canis lupus familiaris, UniProt Q1A7N1).
T1 construct: expressed in transfected cells
Description: In Vitro Canine TRPM8 Functional Assay (intracellular Ca2+ fluorescence, icilin activation, HEK293 cells). Format: cell-based. The settings on record: for IC50: HEK293 cells expressing canine TRPM8, icilin activation, individually measured values (batches/salt forms), read-out: IC50 (nM), in vitro TRP M8 Activity; for inhibition at 0.2 µM / % Inh (%) @0.2 μM, in vitro TRP M8 Activity: individually measured values; for % Inh (%) @0.2 μM, in vitro TRP M8 Activity: 0.2 μM test compound. In short, it runs like this:
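HEK293 cells expressing canine TRPM8 loaded with Calcium 3 dye, then stimulated with icilin; intracellular Ca2+ rise read on FLIPR or FDSS. Peak fluorescence minus basal normalized to percent maximal response; IC50 from sigmoidal nonlinear regression of quadruplicate wells.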

The mark [1] stands for this setting: HEK293, 0.2 μM test compound, read-out: % Inh (%) @0.2 μM, in vitro TRP M8 Activity.
Where [2] appears, read: HEK293, read-out: % Inh (%) @0.2 μM, in vitro TRP M8 Activity, 0.2 μM test compound.

T1 sequence (Q1A7N1 1-1104): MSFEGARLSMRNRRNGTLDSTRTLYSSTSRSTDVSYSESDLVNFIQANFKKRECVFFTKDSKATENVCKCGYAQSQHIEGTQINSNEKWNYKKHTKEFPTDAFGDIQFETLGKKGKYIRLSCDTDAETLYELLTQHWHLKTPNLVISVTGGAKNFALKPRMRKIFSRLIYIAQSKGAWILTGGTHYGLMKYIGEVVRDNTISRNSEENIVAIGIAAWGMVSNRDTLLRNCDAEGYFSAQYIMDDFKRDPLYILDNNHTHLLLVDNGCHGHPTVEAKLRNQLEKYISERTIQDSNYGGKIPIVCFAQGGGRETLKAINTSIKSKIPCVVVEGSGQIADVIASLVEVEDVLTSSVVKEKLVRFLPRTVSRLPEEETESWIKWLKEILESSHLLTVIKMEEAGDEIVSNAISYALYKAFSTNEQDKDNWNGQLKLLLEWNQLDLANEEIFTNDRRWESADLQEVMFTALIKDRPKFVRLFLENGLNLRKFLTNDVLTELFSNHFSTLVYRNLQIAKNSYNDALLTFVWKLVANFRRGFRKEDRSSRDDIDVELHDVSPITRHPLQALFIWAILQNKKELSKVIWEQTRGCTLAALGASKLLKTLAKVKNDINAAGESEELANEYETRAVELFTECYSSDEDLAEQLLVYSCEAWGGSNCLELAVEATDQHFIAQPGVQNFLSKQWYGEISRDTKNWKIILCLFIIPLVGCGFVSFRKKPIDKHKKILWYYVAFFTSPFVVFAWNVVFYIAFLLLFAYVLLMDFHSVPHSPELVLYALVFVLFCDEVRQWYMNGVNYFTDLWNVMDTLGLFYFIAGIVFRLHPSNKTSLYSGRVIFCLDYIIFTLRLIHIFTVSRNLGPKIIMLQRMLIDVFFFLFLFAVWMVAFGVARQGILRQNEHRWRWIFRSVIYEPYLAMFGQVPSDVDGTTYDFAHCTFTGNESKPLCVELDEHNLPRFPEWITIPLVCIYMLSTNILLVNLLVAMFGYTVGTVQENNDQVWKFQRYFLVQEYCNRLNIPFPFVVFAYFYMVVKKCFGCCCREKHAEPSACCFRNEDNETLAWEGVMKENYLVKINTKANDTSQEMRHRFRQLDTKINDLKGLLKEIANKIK

As for `CC(C)(C)c1cc(-c2nc3cc(-c4c(F)cccc4F)ccc3[nH]2)on1` [Compound 67, 2-(3-tert-Butyl-isoxazol-5-yl)-5-(2,6-difluoro-phenyl)-1H-benzimidazole trifluoroacetic acid salt], the IC50 was 15.3 nM and 16.7 nM.
The same measure, in the same setting: the value for `FC(F)(F)Oc1ccccc1-c1ccc2[nH]c(-c3cc(Br)no3)nc2c1` [Compound 43, 2-(3-Bromoisoxazol-5-yl)-5-(2-trifluoromethoxyphenyl)-1H-benzimidazole sodium salt] was 94.6 nM.
For `Cc1nc(C(C)(C)C)oc1-c1nc2cc(-c3ccccc3C(F)(F)F)cc(C(F)(F)F)c2[nH]1` [Compound 177, 2-(2-tert-Butyl-4-methyl-oxazol-5-yl)-7-trifluoromethyl-5-(2-trifluoromethyl-phenyl)-1H-benzimidazole hydrochloride], the inhibition at 0.2 µM under setting [1] was 11%.
The same measure, in the same setting: the value for `Cc1oc(-c2nc3cc(-c4ccccc4Cl)cc(C(F)(F)F)c3[nH]2)nc1C(C)(C)C` [Compound 196, 2-(4-tert-Butyl-5-methyl-oxazol-2-yl)-5-(2-chloro-phenyl)-7-trifluoromethyl-1H-benzimidazole hydrochloride] was 39%.
The same measure, in the same setting: the value for `Cc1oc(C(C)(C)C)nc1-c1nc2cc(-c3ccccc3C(F)(F)F)cc(C(F)(F)F)c2[nH]1` [Compound 153, 2-(2-tert-Butyl-5-methyl-oxazol-4-yl)-7-trifluoromethyl-5-(2-trifluoromethyl-phenyl)-1H-benzimidazole hydrochloride] was 25%.
On to `Cc1c(C(C)(C)C)noc1-c1nc2cc(-c3c(F)cccc3C(F)(F)F)ccc2[nH]1` [Compound 111, 2-(3-tert-Butyl-4-methyl-isoxazol-5-yl)-5-(2-fluoro-6-trifluoromethyl-phenyl)-1H-benzimidazole hydrochloride], for which the IC50 was determined as 10.1 nM.
Same read-out and setting: for `CC(C)(C)c1cc(-c2nc3cc(-c4ccccc4C#N)ccc3[nH]2)on1` [Compound 69, 2-[2-(3-tert-Butyl-isoxazol-5-yl)-1H-benzimidazol-5-yl]-benzonitrile trifluoroacetic acid salt] the value was 20.5 nM.
`Cc1c(C(C)(C)C)nn(C)c1-c1nc2cc(-c3ccccc3Cl)cc(C(F)(F)F)c2[nH]1` [Compound 121, 2-(5-tert-Butyl-2,4-dimethyl-2H-pyrazol-3-yl)-5-(2-chloro-phenyl)-7-trifluoromethyl-1H-benzimidazole hydrochloride]: the IC50 was 3.1 nM.
With `Cn1nc(C(C)(C)C)c(C#N)c1-c1nc2cc(-c3c(F)cccc3C(F)(F)F)cc(C(F)(F)F)c2[nH]1.[Na]` [Compound 152, 3-tert-Butyl-5-[5-(2-fluoro-6-trifluoromethyl-phenyl)-7-trifluoromethyl-1H-benzimidazol-2-yl]-1-methyl-1H-pyrazole-4-carbonitrile sodium salt], the IC50 is 5.3 nM and 6.5 nM and 5 nM. For the same compound, where the note is “sodium salt, 0.2 µM”, the “% Inh (%) @0.2 μM, in vitro TRP M8 Activity” value (“% Inh (%) @0.2 μM” below) is recorded as 99%. Further, the inhibition at 0.2 µM under setting [2] was determined as 100%.
As to `Cc1oc(-c2nc3cc(-c4ccccc4F)cc(C(F)(F)F)c3[nH]2)nc1C(C)(C)C` [Compound 193, 2-(4-tert-Butyl-5-methyl-oxazol-2-yl)-5-(2-fluoro-phenyl)-7-trifluoromethyl-1H-benzimidazole hydrochloride], the inhibition at 0.2 µM under setting [1] was found to be 18%.
Regarding `Cc1c(C(C)(C)C)nn(C)c1-c1nc2cc(-c3c(C(F)(F)F)cccc3C(F)(F)F)ccc2[nH]1` [Compound 97, 5-(2,6-Bis-trifluoromethyl-phenyl)-2-(5-tert-butyl-2,4-dimethyl-2H-pyrazol-3-yl)-1H-benzimidazole hydrochloride], the IC50 worked out at 6.9 nM.
On the same count and under the same terms, for `COc1cccc(F)c1-c1ccc2[nH]c(-c3cnc(C(C)(C)C)n3C)nc2c1` [Compound 70, 2-(2-tert-Butyl-3-methyl-3H-imidazol-4-yl)-5-(2-fluoro-6-methoxy-phenyl)-1H-benzimidazole trifluoroacetic acid salt] the value was 134 nM.
Take `Cn1nc(C(C)(C)C)c(Cl)c1-c1nc2cc(-c3ccccc3F)cc(C(F)(F)F)c2[nH]1` [Compound 127, 2-(5-tert-Butyl-4-chloro-2-methyl-2H-pyrazol-3-yl)-5-(2-fluoro-phenyl)-7-trifluoromethyl-1H-benzimidazole hydrochloride]: the IC50 was 11.5 nM and 6.3 nM. The inhibition at 0.2 µM under setting [1] turned out to be 99%.
In the case of `Cc1c(C(C)(C)C)nn(C)c1-c1nc2cc(-c3c(F)cccc3OC(F)(F)F)cc(Cl)c2[nH]1` [Compound 138, 2-(5-tert-Butyl-2,4-dimethyl-2H-pyrazol-3-yl)-7-chloro-5-(2-fluoro-6-trifluoromethoxy-phenyl)-1H-benzimidazole hydrochloride], the IC50 was 7.7 nM and 6.8 nM. For the same compound, the inhibition at 0.2 µM under setting [1] amounted to 99%.
Take `Cl.Cn1nc(C(C)(C)C)c(C#N)c1-c1nc2cc(-c3ccccc3Cl)cc(C(F)(F)F)c2[nH]1` [Compound 148, 3-tert-Butyl-5-[5-(2-chloro-phenyl)-7-trifluoromethyl-1H-benzimidazol-2-yl]-1-methyl-1H-pyrazole-4-carbonitrile hydrochloride]: the IC50 was 5 nM and 4.1 nM and 2.9 nM. The “% Inh (%) @0.2 μM” value (hydrochloride, 0.2 µM) was found to be 99%. For the same compound, the inhibition at 0.2 µM under setting [1] worked out at 100%.
As to `Cc1c(C(C)(C)C)nn(C)c1-c1nc2cc(-c3ccccc3F)cc(C(F)(F)F)c2[nH]1` [Compound 118, 2-(5-tert-Butyl-2,4-dimethyl-2H-pyrazol-3-yl)-5-(2-fluoro-phenyl)-7-trifluoromethyl-1H-benzimidazole hydrochloride], the IC50 is 9.6 nM.
Regarding `FC(F)(F)c1ccccc1-c1ccc2[nH]c(-c3cc(C4CC4)no3)nc2c1` [Compound 16, 2-(3-cyclopropylisoxazol-5-yl)-5-(2-trifluoromethylphenyl)-1H-benzimidazole sodium salt], the IC50 is 58 nM.
Regarding `Cc1oc(C(C)(C)C)c(C#N)c1-c1nc2cc(-c3ccccc3C(F)(F)F)cc(C(F)(F)F)c2[nH]1` [Compound 184, 2-tert-Butyl-5-methyl-4-[7-trifluoromethyl-5-(2-trifluoromethyl-phenyl)-1H-benzimidazol-2-yl]-furan-3-carbonitrile sodium salt], the IC50 stood at 6.4 nM. The inhibition at 0.2 µM under setting [1] was found to be 101%.
On to `Cc1nc(C(C)(C)C)oc1-c1nc2cc(-c3ccccc3Cl)cc(Cl)c2[nH]1` [Compound 181, 2-(2-tert-Butyl-4-methyl-oxazol-5-yl)-7-chloro-5-(2-chloro-phenyl)-1H-benzimidazole hydrochloride], for which the inhibition at 0.2 µM under setting [1] came to 15%.
As for `Cn1nc(C(C)(C)C)c(C#N)c1-c1nc2cc(-c3ccccc3OC(F)(F)F)cc(C(F)(F)F)c2[nH]1.[Na]` [Compound 150, 3-tert-Butyl-1-methyl-5-[5-(2-trifluoromethoxy-phenyl)-7-trifluoromethyl-1H-benzimidazol-2-yl]-1H-pyrazole-4-carbonitrile sodium salt], the “% Inh (%) @0.2 μM” value was 100, 100%; the IC50 was 5.7 nM and 7.2 nM and 8.3 nM. Further, the inhibition at 0.2 µM under setting [2] worked out at 100%.
Turning to `CC(C)(C)c1cc(-c2nc3cc(-c4c(F)cccc4C(F)(F)F)cc(C(F)(F)F)c3[nH]2)on1` [Compound 144, 2-(3-tert-Butyl-isoxazol-5-yl)-5-(2-fluoro-6-trifluoromethyl-phenyl)-7-trifluoromethyl-1H-benzimidazole hydrochloride], the IC50 was 3.9 nM and 4 nM. In addition, under setting [1], the inhibition at 0.2 µM is 99%.
On to `CCC(CC)c1cc(-c2nc3ccc(-c4ccccc4OC(F)(F)F)cc3[nH]2)on1` [Compound 27, 2-[3-(1-Ethylpropyl)-isoxazol-5-yl]-6-(2-trifluoromethoxyphenyl)-1H-benzimidazole hydrochloride], for which the IC50 was 46 nM.
With `CC(C)Cc1cc(-c2nc3cc(-c4ccccc4C(F)(F)F)ccc3[nH]2)on1` [Compound 22, 2-(3-Isobutylisoxazol-5-yl)-5-(2-trifluoromethylphenyl)-1H-benzimidazole hydrochloride], the IC50 amounted to 32 nM.
On to `Cn1nc2c(c1-c1nc3cc(-c4ccccc4F)ccc3[nH]1)CCC2(C)C` [Compound 131], for which the IC50 was found to be 42 nM. Moreover, the inhibition at 0.2 µM under setting [1] is 100%.
Take `Cc1ccccc1-c1ccc2[nH]c(-c3cc(C(C)(C)C)nn3C)nc2c1` [Compound 55, 2-(5-tert-Butyl-2-methyl-2H-pyrazol-3-yl)-5-o-tolyl-1H-benzimidazole trifluoroacetic acid salt]: the IC50 is 5.5 nM.
Same read-out and setting: for `CC(C)c1cc(-c2nc3cc(-c4ccccc4OC(F)(F)F)ccc3[nH]2)on1` [Compound 5, 2-(3-Isopropylisoxazol-5-yl)-5-(2-trifluoromethoxyphenyl)-1H-benzimidazole sodium salt] the value was 22.5 nM.
Consider `Cc1c(C(C)(C)C)nn(C)c1-c1nc2cc(-c3ccccc3Cl)cc(Cl)c2[nH]1` [Compound 134, 2-(5-tert-Butyl-2,4-dimethyl-2H-pyrazol-3-yl)-7-chloro-5-(2-chloro-phenyl)-1H-benzimidazole hydrochloride], for which the IC50 was 5.6 nM and 10.9 nM. The inhibition at 0.2 µM under setting [1] is 99%.
For `CCCc1cc(-c2nc3ccc(-c4ccccc4C(F)(F)F)cc3[nH]2)on1` [Compound 18, 2-(3-Propylisoxazol-5-yl)-6-(2-trifluoromethylphenyl)-1H-benzimidazole hydrochloride], the IC50 worked out at 27 nM.
`Cn1nc(C(C)(C)C)c(C(F)(F)F)c1-c1nc2cc(-c3ccccc3OC(F)(F)F)cc(C(F)(F)F)c2[nH]1` [Compound 188, 2-(5-tert-Butyl-2-methyl-4-trifluoromethyl-2H-pyrazol-3-yl)-5-(2-trifluoromethoxy-phenyl)-7-trifluoromethyl-1H-benzimidazole sodium salt]: the IC50 was 35 nM. Under setting [1], the inhibition at 0.2 µM came to 99%.
